# Counter-ions that a name gives are not always drawn.
# Tested on: mushroom tyrosinase (phenyl oxidase)
# Assay: Substituted substrates for phenol oxidases: polymer formation with mushroom tyrosinase
# Assay type: biochemical
# Conditions: 5 mM potassium phosphate buffer, 200 Units tyrosinase, up to 3 hours
# Protocol: 6-hydroxyindole, 6-hydroxyindole-3-carboxaldehyde, 1,2-dihydroxybenzene (catechol), 2,3-dihydroxybenzaldehyde, and 3,4-dihydroxybenezaldehyde were used as substrates for phenol oxidases.
# 6-hydroxyindole, 6-hydroxyindole-3-carboxaldehyde, 1,2-dihydroxybenzene (catechol), 2,3-dihydroxybenzaldehyde, and 3,4-dihydroxybenezaldehyde were dissolved in water at a concentration of 0.03 g/ml. Ten microliters of each was diluted into 90 microliter of 5 mM potassium phosphate buffer and 2 μl of mushroom tyrosinase (phenyl oxidase, 200 Units) was added. The reactions were allowed to proceed for up to 3 hours. […] Buffer alone with no substrates were used as controls and were negative for polymer formation.
row,SMILES,Polymer formation with mushroom tyrosinase
1,O=Cc1c[nH]c2cc(O)ccc12 [6-hydroxyindole-3-carboxaldehyde],Polymers were formed
2,Oc1ccc2cc[nH]c2c1 [6 Hydroxyindole],Polymers were formed
3,"O=Cc1cccc(O)c1O [2,3-dihydroxybenzaldehyde]",Polymers were formed
4,"O=Cc1ccc(O)c(O)c1 [3,4-dihydroxybenezaldehyde]",Polymers were formed
5,"Oc1ccccc1O [1,2-dihydroxybenzene (catechol), 1,2-dihydroxybenzene]",Polymers were formed

# Tested on: mushroom tyrosinase (polyphenol oxidase)
# Assay: Polymer production in enzymatic tyrosinase (polyphenol oxidase) reaction
# Assay type: biochemical
# Set-up: key: +++: Reacted within about 1 hour; ++: reacted within about 3 hours; +: reacted within about 24 hours; +/−: inconclusive results; −: no reaction
# Conditions: approx. 50 mM potassium phosphate buffer pH 6.5, approx. 5 mM substrate, observed over 24 hour period
# Protocol: All reactions were carried out in approximately 50 mM potassium phosphate buffer, pH 6.5 with approximately 5 mM substrate and mushroom tyrosinase (polyphenol oxidase) Sigma T3824 in an amount of 100 to 10,000 units. Reaction volumes varied from 200 μl to 2 ml. In cases where substrates were not completely solubilized, then a saturated solution was used as the limit of solubility. In some cases, a solution of DMSO was used to increase solubility of the substrates. […] The reactions were observed over a 24 hour period for the production of polymers, and the presence and color of polymer and solution was recorded.
# The production of polymers in each reaction was visible as a precipitate in the well of a 96 well plate or in the reaction mixture on a glass slide.
row,Result (polymer production in tyrosinase reaction),SMILES
1,++ (reacted within about 3 hours),Oc1ccc2cc[nH]c2c1 [6 Hydroxyindole]
2,+ (reacted within about 24 hours),"Oc1ccc2cc(O)ccc2c1 [2,6 dihydroxnaphthalene]"
3,++ (reacted within about 3 hours),N[C@@H](Cc1ccc(O)cc1)C(=O)O [Tyrosine]
4,+++ (Reacted within about 1 hour),Oc1ccc2[nH]ccc2c1 [5-hydroxyindole]
5,++ (reacted within about 3 hours),CN[C@@H](Cc1ccc(O)cc1)C(=O)O [N-methyl tyrosine]

# More lines, now with the values behind:
row,SMILES,Result (polymer production in tyrosinase reaction)
1,c1ccc2[nH]ccc2c1 [Indole],−
2,NCCc1ccc(O)cc1 [Tyramine],+++ (Reacted within about 1 hour)
3,Cl.NCCc1ccccc1 [Beta phenylethylamine HCL],+/−
4,Cl.NCCc1ccc(O)cc1 [Tyramine HCl],+++ (Reacted within about 1 hour)

# Same assay, conditions: as above; substrate (or marked component) dissolved in 20% DMSO
row,SMILES,Result (polymer production in tyrosinase reaction)
1,CC1=NCCc2c1[nH]c1cc(O)ccc21 [Harmalol HCl dehydrate],−
2,Oc1ccc2c(c1)[nH]c1ccccc12 [2 Hydroxy carbazole],−
3,"Oc1ccc(-c2cc(-c3ccc(O)cc3)cc(-c3ccc(O)cc3)c2)cc1 [1,3,5 Tris(4hydroxyphenyl)benzene]",+ (reacted within about 24 hours)
